Results: patent US7183320B2, “Benzoylsulfonamides and sulfonylbenzamidines for use as antitumour agents” (Eli Lilly and Company, priority 2002, dated 2007)

Assays:
Format in all cases: in vivo
[1] = tested on: MURINE MAMMARY ADENOCARCINOMA-16/C; assay: Early stage murine mammary adenocarcinoma-16/C (Table III); settings: C3H female mice
Excerpt: (§1) Conventional Murine Tumor and Human Tumor Xenouraft Assays
Briefly, the murine tumor or human xenograph was implanted subcutaneously using either 12-gauge trocar implants or counted number of cells. The location for the trocar insertion is midway between the axillary and inguinal region along the side of the mouse. The trocar is slipped approximately ¾ of an inch subcutaneously up toward the axilla before discharging the tumor fragment, and pinching the skin as the trocar is removed., Alternatively, human tumor cells prepared from a […] of donor tumors (5×10^6 cells) were implanted subcutaneously in a hind-leg of a male or female nude mouse (Charles River). Either a test compound in vehicle or vehicle alone was administered by intravenous bolus injection (iv), intraperitoneal injection (ip), or oral gavage (po). Each treatment group, as well as a group of untreated control animals, consisted of five animals per group in each experiment. […] Body weights were taken as a general measure of toxicity. The subcutaneous tumor data were analyzed by determining the median tumor weight for each treatment group over the course of the experiment and calculating the tumor growth delay as the difference in days for the treatment versus the control tumors to reach a volume of either 500 or 1000 mm^3.
(§2) The parameters measured in each experiment are summarized in the following paragraphs. • Tumor Weight(mg)=(a×b^2)/2 where a=tumor length (mm) and b=tumor width (mm). • Tumor Growth Delay=T−C where T is the median time (days) required for the treatment group tumors to reach a predetermined size, and C is the median time (days) for the control group tumors to reach the same size. Tumor-free survivors are excluded from this calculation, and are tabulated separately (Tumor Free).
The median tumor weight of each group is determined (including zeros). The T/C value in percent is an indication of antitumor effectiveness.

[2] = tested on: HUMAN COLON ADENOCARCINOMA-HCT116; assay: Early stage human colon adenocarcinoma HCT116 xenograft (Table IV); settings: Balb/C SCID female mice
Excerpt: as §1
(§3) Inhibition of tumors transplanted into mice is an accepted procedure for studying the efficacy of antitumor agents (Corbett, et al., In vivo Methods for Screening and Preclinical Testing; Use of rodent solid tumors for drug discovery., In: Anticancer Drug Development Guide: Preclinical Screening, Clinical Trials, and Approval, B. Teicher (ed), Humana Press Inc., Totowa, N.J., Chapter 5, pages 75–99 (1997); (Corbett, et al., Int., J. Parmacog., 33, Supplement, 102–122 (1995)). Murine tumors or human xenographs were implanted essentially as described by Corbett in In vivo Methods for Screening and Preclimical Testing; Use of rodent solid tumors for drug discovery. Briefly, the murine tumor or human xenograph was implanted subcutaneously using either 12-gauge trocar implants or counted number of cells. The location for the trocar insertion is midway between the axillary and inguinal region along the side of the mouse. The trocar is slipped approximately ¾ of an inch subcutaneously up toward the axilla before discharging the tumor fragment, and pinching the skin as the trocar is removed., Alternatively, human tumor cells prepared from a […] of donor tumors (5×10^6 cells) were implanted subcutaneously in a hind-leg of a male or female nude mouse (Charles River). Either a test compound in vehicle or vehicle alone was administered by intravenous bolus injection (iv), intraperitoneal injection (ip), or oral gavage (po). Each treatment group, as well as a group of untreated control animals, consisted of five animals per group in each experiment. Subcutaneous tumor response was monitored by tumor volume measurement performed twice each week over the course of the experiment (60–120 days). Body weights were taken as a general measure of toxicity. The subcutaneous tumor data were analyzed by determining the median tumor weight for each treatment group over the course of the experiment and calculating the tumor growth delay as the difference in days for the treatment versus the control tumors to reach a volume of either 500 or 1000 mm^3.
as §2, with “The compound of Example 110 was tested against a variety of murine and human tumors substantially as described supra. The” for “The”
(§4) [formula] • where Tumor Growth Delay is as previously defined and Td is tumor volume doubling time (days), estimated from the best fit straight line from a log-linear growth plot of the control group of tumors in exponential growth (100–800 mg range) • % T/C mass—The treatment and control groups are measured when the control group tumors reach approximately 700 to 1200 mg in size (median group). The median tumor weight of each group is determined (including zeros). The T/C value in percent is an indication of antitumor effectiveness. A T/C≦42% is considered significant antitumor activity. A T/C<10% is considered to indicate highly significant antitumor activity. • Body Weight Loss Nadir—A body weight loss nadir (mean of group) of greater than 20% or drug deaths greater than 20% are considered to indicate an excessively toxic dosage in single course trials. • Activity Rating—the Activity Rating is derived from the Log Kill according to the following table: […]

[3] = tested on: HUMAN SQUAMOUS CELL LUNG CARCINOMA MRI-H165; assay: Early stage human squamous cell lung carcinoma MRI-H165 xenograft (Table XI); settings: total dose 600 mg/kg: 100 mg/kg/injection IV on days 3–5 and 10–12; Balb/C SCID female mice
Excerpt: as §1, §3
as §2, with “The compound of Example 110 was tested against a variety of murine and human tumors substantially as described supra. The” for “The”
as §4

[4] = total dose 560 mg/kg by IV infusion over 3 hours on day 3
[5] = total dose 560 mg/kg: 280 mg/kg by IV infusion on days 3 and 7
[6] = total dose 680 mg/kg IV: 80 mg/kg/injection days 3–6, 120 mg/kg/injection days 7–9
[7] = total dose 280 mg/kg: 70 mg/kg/injection IV on days 3, 4, 5, and 9
[8] = total dose 560 mg/kg: 140 mg/kg/injection IV on days 3, 4, 5, and 9

With O=C(NS(=O)(=O)c1ccccc1)c1ccc(Cl)cc1Cl [Example 110, N-[2,4-dichlorobenzoyl]phenylsulfonamide] the “% BODY WT LOSS AT NADIR” value [1, 4] was “DEATH”, the “ACTIVITY RATING” value [1, 4] was “DEATH” and the “DRUG DEATHS” value [1, 4] was 5/5. For the same compound, the “GROWTH DELAY (DAYS)” value [1, 4] was “DEATH”, the “TUMOR FREE AT DAY 14” value [1, 4] was 0/5 and the “% BODY WT LOSS AT NADIR” value [1, 5] was “+10.9%”. The “% T/C MASS” value [1, 5] was 37%, the “ACTIVITY RATING” value [1, 5] was “+ (0.7–1.2)” and the “DRUG DEATHS” value [1, 5] was 0/4. For the same compound, the “GROWTH DELAY” value [1, 5] was 2.0 days, the “LOG KILL” value [1, 5] was 0.6 and the “TUMOR FREE AT DAY 14” value [1, 5] was 0/4. For the same compound, the “% BODY WT LOSS AT NADIR” value [1, 6] was “+7.6%”, the “% T/C MASS” value [1, 6] was 39% and the “ACTIVITY RATING” value [1, 6] was “+ (0.7–1.2)”. For the same compound, the “DRUG DEATHS” value [1, 6] was 0/5, the “GROWTH DELAY” value [1, 6] was 2.5 days and the “LOG KILL” value [1, 6] was 0.75. For the same compound, the “TUMOR FREE AT DAY 14” value [1, 6] was 0/5, the “% BODY WT LOSS AT NADIR” value [2, 7] was 0% and the “% T/C MASS” value [2, 7] was 0%. For the same compound, the “ACTIVITY RATING” value [2, 7] was “++++ (HIGHLY ACTIVE >2.8)”, the “DRUG DEATHS” value [2, 7] was 0/5 and the “GROWTH DELAY” value [2, 7] was 28 days. For the same compound, the “LOG KILL” value [2, 7] was 3.4, the “TUMOR FREE AT DAY 115” value [2, 7] was 2/5 and the “% BODY WT LOSS AT NADIR” value [2, 8] was −4.0%. The “% T/C MASS” value [2, 8] was 0%, the “ACTIVITY RATING” value [2, 8] was “++++ (HIGHLY ACTIVE >2.8)” and the “DRUG DEATHS” value [2, 8] was 0/5. For the same compound, the “GROWTH DELAY” value [2, 8] was 56 days, the “LOG KILL” value [2, 8] was 6.7 and the “TUMOR FREE AT DAY 115” value [2, 8] was 2/5. For the same compound, the “% BODY WT LOSS AT NADIR” value [3] was −2.1% ^, the “% T/C MASS” value [3] was 0% and the “ACTIVITY RATING” value [3] was “++++ (HIGHLY ACTIVE >2.8)”. For the same compound, the “DRUG DEATHS” value [3] was 0/5, the “GROWTH DELAY” value [3] was 31 days and the “LOG KILL” value [3] was 3.7. The “TUMOR FREE AT DAY 55” value [3] was 0/5.
